Test systems include COLO 205 colon; HCT-116 colon; NCI-H460 lung; SF-539 CNS; MDA-MB-435; SNB-75 CNS; A549 NSCLC; RPMI-8226 leukemia; MDA-N; MDA-MB-231 breast.
Test in all cases: growth of human tumour cells (NCI), 48 h

Each structure is given as a SMILES string.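 Method: 48-hour compound exposure of cells in 96-well plates, five concentrations, linear interpolation of endpoints. TGI is the concentration that stops growth completely.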 Where only a bound is given, the exact number is not on record here.

This passage reports TGI results from PubChem BioAssay (NCI).

In the case of `CC(=O)OCC1OC(OCCCOP(=S)(OCCC#N)OCC2OC(n3ccc(N)nc3=O)C(OC(=O)c3ccccc3)C2OC(=O)c2ccccc2)C(OC(C)=O)C(OC(C)=O)C1OC(C)=O` (centres undefined), the TGI in the test with COLO 205 colon, in the test on HCT-116 colon, with NCI-H460 lung, with SF-539 CNS, in the test on MDA-MB-435 and with SNB-75 CNS was greater than 100 µM in each case. Further, the TGI in the test on A549 NSCLC, with RPMI-8226 leukemia, in the test with MDA-N and in the test on MDA-MB-231 breast was greater than 100 µM each time.

With `CN(C)CCc1c2c(nc3ccccc13)C(=O)c1cccnc1C2=O`, the TGI in the test on COLO 205 colon was 4.91 µM; in the test on HCT-116 colon it was 0.344 µM; in the test on NCI-H460 lung it was 0.5 µM; in the test with SF-539 CNS it was 0.671 µM; in the test with MDA-MB-435, 1.15 µM; in the test on SNB-75 CNS, 2.29 µM. The TGI turned out to be 3.2 µM with A549 NSCLC, 1.82 µM with RPMI-8226 leukemia, 1.38 µM in the test with MDA-N and 26.5 µM in the test with MDA-MB-231 breast.

As for `Clc1ccc2oc(CCc3ccccc3)nc2c1`, the TGI was greater than 100 µM in the test with COLO 205 colon; greater than 100 µM with HCT-116 colon; greater than 100 µM with NCI-H460 lung; greater than 100 µM with SF-539 CNS; greater than 100 µM in the test on MDA-MB-435; 62.8 µM in the test on SNB-75 CNS. Moreover, the TGI in the test with A549 NSCLC, with RPMI-8226 leukemia, in the test on MDA-N and in the test with MDA-MB-231 breast was greater than 100 µM each time.

With `CC(C)(CCC(C)(C)N1OC1c1ccccc1)N1OC1c1ccccc1` (centres undefined), the TGI with COLO 205 colon, in the test on HCT-116 colon, in the test with NCI-H460 lung, with SF-539 CNS, with MDA-MB-435 and with SNB-75 CNS was greater than 100 µM in each case. Besides, the TGI in the test on A549 NSCLC is greater than 100 µM; in the test with RPMI-8226 leukemia, 71.4 µM; with MDA-N, greater than 100 µM; in the test on MDA-MB-231 breast, greater than 100 µM.

Take `CN(CCCNC(=O)c1cc(-c2ccccc2)nc2ccccc12)CCCNC(=O)c1cc(-c2ccccc2)nc2ccccc12`: the TGI in the test with COLO 205 colon came out at 3.14 µM; with HCT-116 colon, 3.33 µM; with NCI-H460 lung, 3.81 µM; in the test on SF-539 CNS it was 4.67 µM; in the test on MDA-MB-435 it was 3.17 µM; in the test on SNB-75 CNS it was 5.02 µM. Also, the TGI in the test on A549 NSCLC came out at 15.3 µM; with RPMI-8226 leukemia it was 10.6 µM; with MDA-N, 3.28 µM; in the test on MDA-MB-231 breast, 7.93 µM.

For the compound `CCc1ccc2c(c1)N(CC(C)CN(C)C)c1ccccc1S2` (centres undefined), the TGI in the test on COLO 205 colon was 8.47 µM; with HCT-116 colon, 11 µM; with NCI-H460 lung, 8.51 µM; in the test with SF-539 CNS, 24.1 µM; in the test with MDA-MB-435 it was 8.13 µM; with SNB-75 CNS, 9.94 µM. Also, the TGI with A549 NSCLC turned out to be 21.7 µM; in the test on RPMI-8226 leukemia, 6.28 µM; in the test on MDA-N, 17.4 µM; in the test on MDA-MB-231 breast, 17.3 µM.

For `c1ccc(N=C2c3ccsc3C(=Nc3ccccc3)c3ccsc32)cc1`, the TGI stood at 6.01 µM with COLO 205 colon; 3.89 µM in the test with HCT-116 colon; 4.03 µM with NCI-H460 lung; 3.83 µM with SF-539 CNS; 0.378 µM in the test with MDA-MB-435; 2.45 µM in the test with SNB-75 CNS. Moreover, the TGI in the test with A549 NSCLC came out at 4.1 µM; in the test with RPMI-8226 leukemia, 11.7 µM; in the test on MDA-N it was 0.554 µM; with MDA-MB-231 breast, 4.5 µM.

With `COc1cccc(C(=O)C#Cc2cnc(OC)nc2OC)c1`, the TGI in the test with COLO 205 colon stood at 3.88 µM; in the test with HCT-116 colon, 7.67 µM; with NCI-H460 lung, 28.3 µM; in the test with MDA-MB-435, 5.24 µM; in the test with SNB-75 CNS, 5.45 µM; in the test with A549 NSCLC, 21.4 µM. The results for the TGI in the test with RPMI-8226 leukemia, in the test on MDA-N and in the test with MDA-MB-231 breast were 6.43 µM, 3 µM and 7.42 µM, respectively.

For `COC(=O)C(Cc1c[nH]c2ccccc12)N=C1Nc2ccncc2S(=O)(=O)N1c1cccc(OC(C)C)c1` (centres undefined), the TGI in the test with COLO 205 colon, with HCT-116 colon, in the test with NCI-H460 lung, in the test with SF-539 CNS, with MDA-MB-435 and in the test on SNB-75 CNS was greater than 100 µM throughout. The TGI in the test with A549 NSCLC was greater than 100 µM; in the test on RPMI-8226 leukemia, 54.4 µM; in the test on MDA-N it was greater than 100 µM; in the test on MDA-MB-231 breast, greater than 100 µM.

In the case of `COc1ccc(C2=NOC(N)(c3ccc(OC)cc3)C2)cc1` (centres undefined), the TGI in the test on COLO 205 colon, in the test on HCT-116 colon, in the test with NCI-H460 lung, in the test with SF-539 CNS, in the test on MDA-MB-435 and with SNB-75 CNS was greater than 100 µM throughout. The TGI with A549 NSCLC, with RPMI-8226 leukemia, in the test on MDA-N and in the test with MDA-MB-231 breast was greater than 100 µM each time.

Turning to `N#Cc1nc(C#N)n(S(=O)(=O)c2ccccc2)c1NS(=O)(=O)c1ccccc1`, the TGI with COLO 205 colon, in the test on HCT-116 colon, in the test with NCI-H460 lung, with SF-539 CNS, in the test with MDA-MB-435 and in the test on SNB-75 CNS was greater than 100 µM throughout. The TGI with A549 NSCLC, with RPMI-8226 leukemia, in the test on MDA-N and in the test on MDA-MB-231 breast was greater than 100 µM each time.

On to `NC(Cc1ccc(S(=O)(=O)O)cc1)C(=O)NC(Cc1ccc(S(=O)(=O)O)cc1)C(=O)NC(Cc1ccc(S(=O)(=O)O)cc1)C(=O)NC(Cc1ccc(S(=O)(=O)O)cc1)C(=O)O` (centres undefined), for which the TGI with COLO 205 colon, in the test with HCT-116 colon, with NCI-H460 lung, in the test on SF-539 CNS, with MDA-MB-435 and in the test with SNB-75 CNS was greater than 100 µM in each case. In addition, the TGI in the test on A549 NSCLC, with RPMI-8226 leukemia, with MDA-N and in the test on MDA-MB-231 breast was greater than 100 µM each time.

In the case of `COC(=O)C1CCC(=O)N1C(c1ccc2c(c1)OCO2)c1cc(OC)c(OC)c(OC)c1` (centres undefined), the TGI in the test with COLO 205 colon, with HCT-116 colon, in the test with NCI-H460 lung, with SF-539 CNS, in the test with MDA-MB-435 and with SNB-75 CNS was greater than 100 µM throughout. The TGI in the test with A549 NSCLC, in the test with RPMI-8226 leukemia, in the test with MDA-N and in the test with MDA-MB-231 breast was greater than 100 µM throughout.
